In article PMC12668310, “High‐Throughput Synthesis and Screening of a Cyanimide Library Identifies Selective Inhibitors of ISG15‐Specific Protease mUSP18” (Angewandte Chemie (International Ed. in English), 2025):
Values joined by “and” are separate entries in the source; they are usually repeats but may differ in a detail not shown here. Equal entries are not always repeated. Where two headings read alike, the source gives them in different places.

Experiments:
USP16 = USP16 (Homo sapiens, UniProt Q9Y5T5); experiment: High-throughput screening, Ub-RhoMP, single dose 1.25 µM; type: biochemical; parameters: (22-823); His-tag (N); made in house; settings: for %inhibition USP16: crude in-plate synthesized compound, 1.25 µM assuming full conversion; for BB %inhibition USP16: individual amine building block (plate NCN-5)
Sequence of USP16 (Q9Y5T5 22-823): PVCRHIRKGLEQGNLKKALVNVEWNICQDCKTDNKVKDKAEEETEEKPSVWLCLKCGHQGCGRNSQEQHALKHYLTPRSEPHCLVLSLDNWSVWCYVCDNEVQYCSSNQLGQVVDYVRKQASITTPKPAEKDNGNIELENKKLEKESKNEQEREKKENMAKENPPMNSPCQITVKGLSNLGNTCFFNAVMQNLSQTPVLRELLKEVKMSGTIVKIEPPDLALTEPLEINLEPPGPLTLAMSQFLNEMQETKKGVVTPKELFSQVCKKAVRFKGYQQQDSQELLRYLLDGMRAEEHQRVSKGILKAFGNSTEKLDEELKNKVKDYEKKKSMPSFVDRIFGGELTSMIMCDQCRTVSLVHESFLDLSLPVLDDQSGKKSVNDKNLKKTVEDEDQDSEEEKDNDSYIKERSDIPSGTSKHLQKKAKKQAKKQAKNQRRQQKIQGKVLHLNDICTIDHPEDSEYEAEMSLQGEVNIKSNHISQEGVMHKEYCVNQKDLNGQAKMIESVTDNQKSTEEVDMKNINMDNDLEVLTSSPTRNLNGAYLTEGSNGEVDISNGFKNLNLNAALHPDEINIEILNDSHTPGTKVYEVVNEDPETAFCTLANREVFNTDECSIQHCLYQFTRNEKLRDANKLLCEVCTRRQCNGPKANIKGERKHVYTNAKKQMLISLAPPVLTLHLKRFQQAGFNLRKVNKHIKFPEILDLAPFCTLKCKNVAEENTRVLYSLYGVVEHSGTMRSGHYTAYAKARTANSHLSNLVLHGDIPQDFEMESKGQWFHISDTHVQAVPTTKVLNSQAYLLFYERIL
Method: (§1) Since the in‐plate synthesis was conducted in 1536‐well Echo plates, the compounds could readily be transferred from these plates into 1536‐well assay plates using acoustic liquid dispensing (Figure 2a) and subjected to HTS. We screened the whole 7536 compound library against a panel of twelve enzymes, including three DUBs from the UCH family, two DUBs from the OTU family, five DUBs from the USP family, plus ISG15 protease USP18, and SUMO protease SENP1. Each compound was tested at a single dose of 1.25 µM, assuming full conversion (10 mM in DMSO of the formed products) during the in‐plate synthesis, using the fluorogenic assay described above. […] The compounds are sorted by the amine building blocks (BB1‐16), and within each BB, sorted by carboxylic acid (CA1‐471), thereby providing a comprehensive and systematic overview of the overall inhibition by each BB and CA combination. Some interesting patterns can be obtained from this map. […] Indeed, BB10 is the privileged scaffold for UCHL1 as it originates from UCHL1 inhibitor 5 (Figure 1). […] On the other hand, OTUD1 and USP32 show a much higher hit rate, and this is even more pronounced for USP30 and ISG15 protease mUSP18, each showing many active compounds distributed over several BB's.
(§2) Purified recombinant enzymes used in this study
(§3) High-throughput screening
(§4) The screens were performed at room temperature in “flat bottom, non-treated, black […]
(§5) µM. The compounds (10 nL each) were transferred from the 1 mM daughter plates to the […]
(§6) Four wells containing DMSO
(§7) (10 nL) and four wells containing NEM (10 mM final concentration) were used in each plate […]
(§8) solution (1.33x final concentration) was added to each well, followed by incubation for 30 min.
(§9) Next, 2 µL of a substrate solution (4x final concentration) was added to each well (Ub-RhoMP[2]
(§10) After 1h or 2h incubation the
(§11) The percentage inhibition was calculated for each well using the […]
(§12) Where FIx is the fluorescence intensity of each well, FIpos is the average fluorescence intensity of the positive (NEM) control wells, and FIneg is the average fluorescence intensity of the negative (DMSO) control wells.

SENP1 = target: T1, SENP1 (Homo sapiens, UniProt Q9P0U3); experiment: High-throughput screening, single dose 1.25 µM; type: biochemical; settings: for %inhibition SENP1: crude in-plate synthesized compound, 1.25 µM assuming full conversion; for inhibition at 1.25 µM: individual amine building block (plate NCN-5), read-out: BB %inhibition SENP1
T1 sequence (Q9P0U3 419-644): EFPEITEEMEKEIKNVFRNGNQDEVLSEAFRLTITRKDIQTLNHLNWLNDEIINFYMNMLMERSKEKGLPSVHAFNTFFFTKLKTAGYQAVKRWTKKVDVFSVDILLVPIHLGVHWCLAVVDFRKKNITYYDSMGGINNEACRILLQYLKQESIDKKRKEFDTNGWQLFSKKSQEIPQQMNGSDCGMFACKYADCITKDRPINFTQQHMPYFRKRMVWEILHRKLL
Method: as §1, §2, §3, §4, §5, §6, §7, §8, §9, §10, §11, §12

mUSP18 = target: T2, mUSP18 (Mus musculus, UniProt Q9WTV6); experiment: High-throughput screening, ISG15ct-RhoMP, single dose 1.25 µM; type: biochemical, murine
T2 construct: (46-368); His-tag (N); made in house
T2 sequence (Q9WTV6 46-368): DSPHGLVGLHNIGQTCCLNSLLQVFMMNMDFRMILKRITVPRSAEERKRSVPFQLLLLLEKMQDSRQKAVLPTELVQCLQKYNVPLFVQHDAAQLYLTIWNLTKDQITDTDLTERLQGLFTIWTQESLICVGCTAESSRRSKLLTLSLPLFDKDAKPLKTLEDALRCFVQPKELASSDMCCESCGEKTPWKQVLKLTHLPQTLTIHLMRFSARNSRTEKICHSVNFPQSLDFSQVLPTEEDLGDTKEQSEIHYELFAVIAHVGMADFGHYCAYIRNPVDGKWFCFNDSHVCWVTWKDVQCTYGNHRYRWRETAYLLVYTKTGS

UCHL3 = target: T3, UCHL3 (Homo sapiens, UniProt P15374); experiment: High-throughput screening, Ub-RhoMP, single dose 1.25 µM; type: biochemical; settings: for %inhibition UCHL3: crude in-plate synthesized compound, 1.25 µM assuming full conversion; for inhibition at 1.25 µM: individual amine building block (plate NCN-5), read-out: BB %inhibition UCHL3
T3 construct: (1-230); made in house
T3 sequence (P15374 1-230): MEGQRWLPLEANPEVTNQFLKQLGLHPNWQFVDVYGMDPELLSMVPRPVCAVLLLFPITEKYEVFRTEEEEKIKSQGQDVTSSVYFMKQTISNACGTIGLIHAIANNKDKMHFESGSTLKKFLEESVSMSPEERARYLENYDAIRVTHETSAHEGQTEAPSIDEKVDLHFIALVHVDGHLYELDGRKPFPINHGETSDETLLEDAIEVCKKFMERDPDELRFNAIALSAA
Method: as §1, §2, §3, §4, §5, §6, §7, §8, §9, §10, §11, §12

USP30 = target: T4, USP30 (Homo sapiens, UniProt Q70CQ3); experiment: as above; type: biochemical; parameters: USP30 CD (57-517); purchased Ubiquigent 64-0057-050; settings: for %inhibition USP30: crude in-plate synthesized compound, 1.25 µM assuming full conversion; for BB %inhibition USP30: individual amine building block (plate NCN-5)
T4 sequence (Q70CQ3 57-517): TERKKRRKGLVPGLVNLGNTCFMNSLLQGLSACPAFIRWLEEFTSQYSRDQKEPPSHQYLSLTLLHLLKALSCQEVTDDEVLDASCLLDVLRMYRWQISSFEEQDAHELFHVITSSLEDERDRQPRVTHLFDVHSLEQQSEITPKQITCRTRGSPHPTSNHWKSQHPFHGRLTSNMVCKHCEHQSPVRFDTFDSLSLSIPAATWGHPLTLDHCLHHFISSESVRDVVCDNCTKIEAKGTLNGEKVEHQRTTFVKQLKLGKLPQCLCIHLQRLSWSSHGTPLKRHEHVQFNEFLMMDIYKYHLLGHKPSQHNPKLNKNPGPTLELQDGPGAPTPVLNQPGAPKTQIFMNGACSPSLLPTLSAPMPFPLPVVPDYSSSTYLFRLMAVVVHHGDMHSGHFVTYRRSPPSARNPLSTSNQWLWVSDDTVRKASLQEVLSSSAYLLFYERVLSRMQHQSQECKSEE
Method: as §1, §2, §3, §4, §5, §6, §7, §8, §9, §10, §11, §12

OTUB2 = target: T5, OTUB2 (Homo sapiens, UniProt Q96DC9); experiment: as above; type: biochemical; parameters: (1-234); His6 (cleaved yes); made in house; settings: individual amine building block (plate NCN-5); read-out: BB %inhibition OTUB2
T5 sequence (Q96DC9 1-234): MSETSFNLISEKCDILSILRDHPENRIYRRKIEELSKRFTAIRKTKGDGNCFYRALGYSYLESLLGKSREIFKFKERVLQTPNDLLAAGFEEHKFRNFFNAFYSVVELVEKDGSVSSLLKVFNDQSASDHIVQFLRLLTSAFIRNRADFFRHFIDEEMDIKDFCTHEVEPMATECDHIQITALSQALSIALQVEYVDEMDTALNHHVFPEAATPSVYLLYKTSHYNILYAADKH
Method: as §1, §2, §3, §4, §5, §6, §7, §8, §9, §10, §11, §12

[1] = crude in-plate synthesized compound, 1.25 µM assuming full conversion, read-out: %inhibition mUSP18
[2] = individual amine building block (plate NCN-5), read-out: BB %inhibition mUSP18

Row | Structure (SMILES) | %inhibition USP16 (USP16) [%] | %inhibition SENP1 (SENP1) [%] | inhibition at 1.25 µM (mUSP18; [1]) [%] | %inhibition UCHL3 (UCHL3) [%] | %inhibition USP30 (USP30) [%] | BB %inhibition USP16 (USP16) [%] | inhibition at 1.25 µM (SENP1) [%] | inhibition at 1.25 µM (mUSP18; [2]) [%] | inhibition at 1.25 µM (OTUB2) [%] | inhibition at 1.25 µM (UCHL3) [%] | BB %inhibition USP30 (USP30)
1 | N#CN1CC[C@@H](NC(=O)c2nc(N3CCCC3)ncc2Cl)C1 [BB01CA90] | 11.4 | 16.6 | 27.1 | 19.3 | 54.5 | – | – | – | – | – | –
2 | N#CN1CC[C@@H](NC(=O)C(Cc2c[nH]cn2)NS(=O)(=O)c2ccc(Cl)cc2)C1 (some centres unmarked) [BB01CA91] | 7.7 | 13.2 | 13.4 | 16.3 | 36.0 | – | – | – | – | – | –
3 | N#CN1CC[C@@H](NC(=O)Cc2csc(-c3cnccn3)n2)C1 [BB01CA92] | 15.0 | 12.8 | 24.6 | 17.1 | 65.3 | – | – | – | – | – | –
4 | N#CN1CC[C@@H](NC(=O)CCN(Cc2ccccc2)S(=O)(=O)c2c(Cl)cccc2Cl)C1 [BB01CA93] | 20.5 | 8.6 | 74.1 | 16.3 | 101.1 | – | – | – | – | – | –
5 | N#CN1CC[C@@H](NC(=O)c2ncoc2-c2cccs2)C1 [BB01CA94] | 11.4 | 8.5 | 24.1 | 16.0 | 73.0 | – | – | – | – | – | –
6 | N#CN1CC[C@@H](N)C1 [BB1] | – | – | – | – | – | 7.2 | 1.3 | 6.8 | 3.3 | 5.9 | 5.9%
7 | N#CN1CCC(N)CC1 [BB2] | – | – | – | – | – | 8.1 | -2.9 | 4.3 | 0.9 | 3.9 | 4.8%
8 | N#CN1CC[C@H](N)C1 [BB3] | – | – | – | – | – | 5.8 | -1 | 3.1 | 0.556 | 0.6 | 3.7%
9 | N#CN1CCC[C@@H](N)C1 [BB4] | – | – | – | – | – | 5.0 | -2.1 | 3.9 | 2.7 | 2 | 5.1%
10 | N#CN1CC(N)C1 [BB5] | – | – | – | – | – | 1.2 | -5.2 | -0.216 | -1.4 | -0.9 | -0.656%
11 | N#CN1C[C@H]2C[C@@H](N)C[C@H]2C1 [BB6] | – | – | – | – | – | 0.3 | -9 | -0.535 | -1.5 | -4.7 | -0.126%
12 | Cc1cc(C(=O)N[C@H]2C[C@@H]3CN(C#N)C[C@@H]3C2)ccc1Br [BB07CA28] | – | – | 95 | – | – | – | – | – | – | – | –
13 | N#CN1C[C@H]2C[C@H](N)C[C@H]2C1 [BB7] | – | – | – | – | – | -1.2 | -11.7 | -3.9 | -3.8 | -7.4 | -2.3%
14 | N#CN1CCC[C@H](N)C1 [BB8] | – | – | – | – | – | -0.5 | 0.5 | -1.5 | -1.3 | -2.2 | -2.4%
15 | N#CN1CC[C@@H](NC(=O)c2ccc(CN)cc2)C1 [BB9] | – | – | – | – | – | -1.3 | -5 | 2 | -2 | -2.3 | ~35% and 31.5%
16 | N#CN1CC[C@H](C(=O)Nc2nc3c(s2)CNCC3)C1 [BB10] | – | – | – | – | – | -2.4 | -5.4 | 0.154 | -5.1 | -5.1 | -2.0%
17 | N#CN1CC[C@H](CN)C1 [BB11] | – | – | – | – | – | -4.8 | -12.3 | -3.8 | -6.8 | -5.7 | -5.7%
18 | N#CN1C[C@@H]2C[C@H]1CN2 [BB12] | – | – | – | – | – | -5.0 | -9.2 | -0.7 | -6 | -4.6 | -3.6%
